Test results reported in patent US12709608B2, “4-amino pyrimidine compounds for the treatment of cancer” (University of Rochester, priority 2021, dated 2026).
“Also recorded” adds a separate entry of the source. Where two headings read alike, the source gives them in different places.

Tests used:
[1] = Biodistribution in brainstem and serum of mice, HPLC analysis of tissue extracts; assay type: in vivo; details: for concentration at 3 h: ip, 3 hours after intraperitoneal injection
Excerpt: Study of JMJD3 demethylase inhibitors. […] Because of its promising anti-tumor activities, GSK-J4 has been used to treat many kinds of tumors in preclinical models including T-cell acute lymphoblastic leukemia, acute myeloid leukemia, diffuse large B-cell lymphoma, neuroblastoma, prostate cancer, gastric cancer, and DIPG. The major challenge of GSK-J4 in clinical development is that GSK-J4 is a prodrug and is rapidly converted to the active drug […] in vivo (FIG. 1). […] The development of novel compounds such as UR-8 offered desirable properties including good cellular and brain transport which is essential to improving in vivo efficacy.
UR-8 was administered by intraperitoneal injection to mice that were euthanized at 3 hours following UR-8 administration. Their brains were immediately resected, the brainstem was dissected from the surrounding brain, and the serum was collected by cardiac puncture. […] GSK-J1 was highly detected in either serum and brainstem in the mice treated with GSK-J4 in compared to that of the mice treated with UR-8. GSK-J4 was not detected in any specimens from mice treated with GSK-J4.

[2] = system: H3K27M DIPG cell lines (H3.3 K27M SF8628, H3.3 K27M DIPG-007, and H3.1 K27M SU-DIPGIV); experiment: Inhibition of DIPG cell growth (cytotoxic activity), 72 hours treatment; assay type: cell-based; details: Homo sapiens; three H3K27M mutant DIPG cell lines (SF8628, DIPG-007, SU-DIPGIV), treated for 72 hours
Experimental: Specifically, UR-8 and UR-17 induced dose dependent inhibition of the growth of K27M DIPG cells—To determine the potential of the UR-analog series, UR-8 and UR-17 were selected for initial studies on DIPG cell growth. Thus, three H3K27M DIPG cell lines (H3.3 K27M SF8628, H3.3 K27M DIPG-007, and H3.1 K27M SU-DIPGIV) were treated with GSK-J4 (R&D System), UR-8, and UR-17 for 72 hours.

[3] = system: SF8628 intracranial (brainstem) tumor; experiment: In vivo anti-tumor activity in patient-derived K27M DIPG xenografted mice; details: for Survival, log-rank test P, control vs. compound: vs vehicle control (DMSO)
Experimental: Mice with SF8628 intracranial (brainstem) tumor were randomized to four treatment groups: vehicle control (DMSO, n=7), GSK-J4 (100 mg/kg/day for 10 consecutive days, n=8), UR-8 (100 mg/kg/day for 10 consecutive days, n=8), and UR-17 (100 mg/kg/day for 10 consecutive days, n=8). FIG. 3 (A) Upper: Growth plots for intracranial tumors using tumor bioluminescence values. Lower: Corresponding tumor bioluminescence intensity overlay images for representative vehicle-treated, GSK-J4, UR-17, and UR-8-treated mice. FIG. 3 (B) Corresponding survival plots for each experiment. Statistical analysis was performed using a log-rank test: control vs. GSK-J4, **P=0.0094; control vs. UR-8, ***P=0.0002; control vs. UR-17, ***P=0.0008; GSK-J4 vs. UR-8, ***P=0.0008; UR-8 vs. UR-17, *P=0.0197. FIG. 3 (c) Effects of UR-8 on cell proliferation.
UR-8 inhibited tumor growth and prolonged survival of mice bearing human DIPG xenografts—Based on the biological effects of UR-analogs in vitro, it was hypothesized that UR-analogs would suppress tumor growth and increase survival in mice with orthotopic (brainstem) human DIPG xenografts. To determine in vivo anti-tumor activity of UR-analogs, the mice were implanted with SF8628 DIPG cells in the brainstem and were treated with 100 mg/kg of GSK-J4, UR-8, and UR-17 for 10 consecutive days.

[4] = SF8628 brainstem xenograft, 100 mg/kg for 10 consecutive days
[5] = SF8628 brainstem xenograft, 100 mg/kg/day for 10 consecutive days

Row | Structure (SMILES) | Brain penetration ratio (UR-8) ([1]; brainstem concentration as % of serum concentration, analyte UR-8, UR-8 treated mice) [%] | Kp at 3 h ([1]; mouse, brainstem relative to serum, intraperitoneal, brainstem concentration as % of serum concentration, analyte UR-8, UR-8 treated mice, read-out: Brain penetration ratio (UR-8)) | concentration at 3 h ([1]; mouse, brainstem, UR-8 treated mice, analyte UR-8, read-out: UR-8 concentration, Brainstem) [ng/mL] | concentration at 3 h ([1]; mouse, serum, UR-8 treated mice, analyte UR-8, read-out: UR-8 concentration, Serum) [ng/mL] | IC50 [2] [µM] | Survival benefit of treated mice [3, 4] | Survival, log-rank test P, GSK-J4 vs. UR-8 [3, 5] | Survival, log-rank test P, UR-8 vs. UR-17 [3, 5] | Survival, log-rank test P, control vs. compound [3, 5] | Therapeutic benefit compared with the other compounds ([3]; intracranial (brainstem) human DIPG xenografted mice, comparison with GSK-J4 / UR-17) | GSK-J1 concentration, Brainstem ([1]; GSK-J4 treated mice, analyte GSK-J1, 3 hours after administration) [ng/mL] | GSK-J1 concentration, Serum ([1]; GSK-J4 treated mice, analyte GSK-J1, 3 hours after administration, intraperitoneal) [ng/mL] | Brain penetration ratio (GSK-J1) ([1]; brainstem concentration as % of serum concentration, analyte GSK-J1, GSK-J4 treated mice) [%] | Species found in brainstem tissue after GSK-J4 treatment ([1]; mice euthanized at 3 hours after completion of GSK-J4 treatment) | GSK-J4 detection in specimens from mice treated with GSK-J4 ([1]; serum and brainstem, HPLC) | Tumor growth rate (bioluminescence monitoring) [3, 4]
1 | OCCCNc1cc(N2CCc3ccccc3CC2)nc(-c2ccccn2)n1 [UR-8, 3-((2-(pyridin-2-yl)-6-(1,2,4,5-tetrahydro-3H-benzo[d]azepin-3-yl)pyrimidin-4-yl)amino)propan-1-ol] | 8.77 ± 2.37 | 0.0877 ± 0.0237 | 410 ± 244 | 4460 ± 1580 | 4 to 6 | significant benefit | 0.0008 | 0.0197 | 0.0002 | outperforming either GSK-J4 or UR-17; also recorded: greater anti-tumor activity and survival benefit than that obtained by GSK-J4 treatment |  |  |  |  |  | 
2 | CCOC(=O)CCNc1cc(N2CCc3ccccc3CC2)nc(-c2ccccn2)n1 [GSK-J4] |  |  |  |  |  | substantial survival benefit |  |  | 0.0094 |  | 141.5 ± 50.2 | 31250 ± 18879 | 0.61 ± 0.53 | only GSK-J1 | not detected | reduced tumor growth rate
